From publication PMC7481839, “Switchable foldamer ion channels with antibacterial activity” (Chemical Science, 2020)
≈ marks a conversion by molar mass, not a printed value. Where a SMILES comes first, the peptide text is derived from it.

Experiments:
[1] = Solubility; type: physicochemical; conditions: under the haemolysis assay conditions (blood diluted with PBS, compound added from DMSO)
Text: Mixing 1 or 2 with CuCl2 or CuCl provided green or blue complexes respectively. […] The blue complexes from the addition of CuCl gave very broad NMR spectra even after preparing fresh samples, which was ascribed to in situ oxidation of Cu(I); Cu(I)(TPA) complexes are very efficient one electron donors and will rapidly reduce alkyl halides[27] and oxygen.[28] Furthermore these blue products gave green solids when dried (see the ESI, Fig. S2 ^†).
Although alamethicin is a very active channel former, its use in the clinic is hampered by its high haemolytic activity.[52] […] It is known that the haemolytic activity of amphipathic peptides, including alamethicin, decreases substantially on a reduction of peptide hydrophobicity and hydrophobic moment.[56]

[2] = U-tube lucigenin (chloride) transport experiment; conditions: 1 mM in chloroform, 20 mM MOPS, 100 mM NaCl, pH 7.4, 25 °C, up to 24 h, UV at 455 nm
Experimental: To assess if these compounds can act as cation carriers, U-tube experiments for sodium picrate transport were performed on 1, Cu(II)[1]Cl2 and Cu(II)[2]Cl2. […] Similarly, a U-tube experiment for chloride transport was performed using lucigenin.[4],[40]
5.7 Preparation of large unilamellar vesicles for CF release assays
A 50 mM 5(6)-carboxyfluorescein (CF) solution in MOPS buffer (20 mM MOPS, 100 mM NaCl, pH 7.4) was prepared by dissolving 5/6-CF in MOPS buffer, adding a sodium hydroxide (1M) solution dropwise until pH 11 was reached. The resulting solution was the slowly acidified to pH 7.4.
EYPC-cholesterol (4:1) 800 nm vesicles were prepared as described above, using the above mentioned 5(6)-carboxyfluorescein (CF) (50 mM) solution. […]
The U-tube was incubated in a water bath at 25 °C and the chloroform phase was stirred at 300 rpm during the entire experiment, ensuring efficient diffusion of any potential carrier-ion complex to the receiving phase. Aliquots (1 mL) were taken from the receiving phase and analysed for the presence of picrate by UV spectroscopy (at 356 nm). […]
Figure S11: U-tube metal picrate transport data for foldamer 1 (brown), Cu[2]Cl2 (black), Cu[1]Cl2 (green), and the control transporter, dibenzo-18-crown-6 (red). Absorbance at 356 nm. […]
Aliquots (1 mL) were taken from the receiving phase and analysed for the presence of lucigenin by UV spectroscopy (at 455 nm). […]

## CC(C)(NC(=O)C(C)(C)NC(=O)C(C)(C)NC(=O)C(C)(C)NC(=O)C(C)(C)n1cc(CN(Cc2ccccn2)Cc2ccccn2)nn1)C(=O)NC(C)(C)C(=O)NC(C)(C)C(=O)NC(C)(C)C(=O)OCC[Si](C)(C)C [foldamer 2] (HELM PEPTIDE1{[CC(C)(C(=O)[*:2])n1cc(CN(Cc2ccccn2)Cc2ccccn2)nn1].[Aib].[Aib].[Aib].[Aib].[Aib].[Aib].[Aib].[C[Si](C)(C)CCO[*:1]]}$$$$V2.0)
[1]
  solubility limit: 20 µM (≈ 21.2 µg/mL)
[2]
  chloride (lucigenin) transport through the organic phase: no chloride was carried through the organic phase
